Source: ChEMBL document CHEMBL5465560, “Selectivity Literature for EUbOPEN Chemogenomic Library” (2024)

Experiments:
[1] = molecular target: T1, Mitogen-activated protein kinase kinase kinase 2 (Homo sapiens) (UniProt Q9Y2U5); test: Selectivity interaction (KinomeScan (DiscoverX)) EUB0000229b MAP3K2; conditions: at 10 µM
T1 sequence (whole entry): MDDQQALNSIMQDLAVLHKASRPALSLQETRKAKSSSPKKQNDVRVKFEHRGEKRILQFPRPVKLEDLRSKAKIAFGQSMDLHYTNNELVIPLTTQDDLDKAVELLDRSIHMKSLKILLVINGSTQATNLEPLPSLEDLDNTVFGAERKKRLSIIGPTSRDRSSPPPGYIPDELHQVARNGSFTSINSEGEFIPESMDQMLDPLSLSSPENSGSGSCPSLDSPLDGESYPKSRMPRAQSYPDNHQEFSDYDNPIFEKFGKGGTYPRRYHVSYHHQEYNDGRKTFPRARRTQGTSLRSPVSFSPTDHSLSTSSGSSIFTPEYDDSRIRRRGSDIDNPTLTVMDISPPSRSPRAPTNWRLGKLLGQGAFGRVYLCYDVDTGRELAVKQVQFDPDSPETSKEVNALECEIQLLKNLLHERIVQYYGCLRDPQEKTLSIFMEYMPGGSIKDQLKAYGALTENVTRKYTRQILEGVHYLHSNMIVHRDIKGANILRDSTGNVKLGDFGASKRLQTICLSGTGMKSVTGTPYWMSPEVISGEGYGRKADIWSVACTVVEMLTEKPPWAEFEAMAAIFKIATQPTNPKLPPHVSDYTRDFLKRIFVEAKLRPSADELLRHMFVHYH

[2] = molecular target: Ribosomal protein S6 kinase alpha-4 (Homo sapiens) (UniProt O75676); test: Selectivity interaction (KinomeScan (DiscoverX)) EUB0001079a RPS6KA4; conditions: at 1 µM
[3] = molecular target: Cyclin-dependent kinase 15 (Homo sapiens) (UniProt Q96Q40); conditions: at 10 µM
[4] = molecular target: Dual specificity protein kinase CLK3 (Homo sapiens, UniProt P49761); conditions: at 10 µM
[5] = molecular target: T2, Serine/threonine-protein kinase D1 (Homo sapiens) (UniProt Q15139); test: Selectivity interaction (Kinase panel (Invitrogen)) EUB0000639a PRKD1; conditions: at 200 nM
T2 sequence (whole entry): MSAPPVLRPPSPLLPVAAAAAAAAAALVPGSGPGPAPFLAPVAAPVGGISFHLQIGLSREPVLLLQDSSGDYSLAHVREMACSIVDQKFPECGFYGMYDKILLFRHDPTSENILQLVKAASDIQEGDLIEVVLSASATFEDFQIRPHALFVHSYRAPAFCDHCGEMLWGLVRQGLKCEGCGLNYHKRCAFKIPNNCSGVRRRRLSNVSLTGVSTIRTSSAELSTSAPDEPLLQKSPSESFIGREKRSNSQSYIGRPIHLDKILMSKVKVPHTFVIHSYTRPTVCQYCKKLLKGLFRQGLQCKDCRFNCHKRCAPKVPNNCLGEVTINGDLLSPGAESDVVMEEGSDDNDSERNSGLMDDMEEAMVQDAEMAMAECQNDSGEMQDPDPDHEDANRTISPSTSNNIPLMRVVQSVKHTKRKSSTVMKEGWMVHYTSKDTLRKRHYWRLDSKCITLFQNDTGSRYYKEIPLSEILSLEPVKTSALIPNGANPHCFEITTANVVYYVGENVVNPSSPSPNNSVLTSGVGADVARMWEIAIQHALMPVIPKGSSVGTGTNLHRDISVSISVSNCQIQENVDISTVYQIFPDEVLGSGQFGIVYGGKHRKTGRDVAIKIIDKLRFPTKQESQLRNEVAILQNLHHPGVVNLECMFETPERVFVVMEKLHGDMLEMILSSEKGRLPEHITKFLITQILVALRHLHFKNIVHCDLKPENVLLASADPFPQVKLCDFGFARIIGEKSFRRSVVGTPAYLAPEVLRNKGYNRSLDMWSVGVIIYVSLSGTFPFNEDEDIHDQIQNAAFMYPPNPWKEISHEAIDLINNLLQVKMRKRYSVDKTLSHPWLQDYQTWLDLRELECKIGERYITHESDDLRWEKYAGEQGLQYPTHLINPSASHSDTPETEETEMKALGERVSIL

[6] = molecular target: Serine/threonine-protein kinase PRP4 homolog (Homo sapiens) (UniProt Q13523); test: Selectivity interaction (KinomeScan (DiscoverX)) EUB0001049a PRPF4B; conditions: at 1 µM
[7] = molecular target: T3, Non-receptor tyrosine-protein kinase TNK1 (Homo sapiens) (UniProt Q13470); test: Selectivity interaction (KinomeScan (DiscoverX)) EUB0000595a TNK1; conditions: at 10 µM
T3 sequence (whole entry): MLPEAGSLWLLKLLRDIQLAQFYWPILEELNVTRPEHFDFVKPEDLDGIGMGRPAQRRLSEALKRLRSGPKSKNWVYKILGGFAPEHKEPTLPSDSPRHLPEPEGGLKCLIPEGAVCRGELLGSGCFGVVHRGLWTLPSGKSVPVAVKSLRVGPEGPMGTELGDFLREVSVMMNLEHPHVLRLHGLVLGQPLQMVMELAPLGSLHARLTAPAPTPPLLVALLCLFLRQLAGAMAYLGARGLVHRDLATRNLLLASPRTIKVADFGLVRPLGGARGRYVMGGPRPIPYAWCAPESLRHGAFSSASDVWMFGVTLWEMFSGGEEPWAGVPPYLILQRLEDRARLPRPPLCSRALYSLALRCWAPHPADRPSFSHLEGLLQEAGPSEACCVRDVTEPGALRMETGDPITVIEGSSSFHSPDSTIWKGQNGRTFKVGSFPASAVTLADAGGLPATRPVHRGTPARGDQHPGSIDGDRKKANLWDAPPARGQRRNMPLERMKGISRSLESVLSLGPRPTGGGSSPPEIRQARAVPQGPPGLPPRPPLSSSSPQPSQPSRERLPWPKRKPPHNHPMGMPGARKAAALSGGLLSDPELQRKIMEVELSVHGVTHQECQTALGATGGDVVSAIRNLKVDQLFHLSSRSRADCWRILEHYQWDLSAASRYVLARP

Cyclin-dependent kinase 15 (Homo sapiens), sequence (Q96Q40 whole entry): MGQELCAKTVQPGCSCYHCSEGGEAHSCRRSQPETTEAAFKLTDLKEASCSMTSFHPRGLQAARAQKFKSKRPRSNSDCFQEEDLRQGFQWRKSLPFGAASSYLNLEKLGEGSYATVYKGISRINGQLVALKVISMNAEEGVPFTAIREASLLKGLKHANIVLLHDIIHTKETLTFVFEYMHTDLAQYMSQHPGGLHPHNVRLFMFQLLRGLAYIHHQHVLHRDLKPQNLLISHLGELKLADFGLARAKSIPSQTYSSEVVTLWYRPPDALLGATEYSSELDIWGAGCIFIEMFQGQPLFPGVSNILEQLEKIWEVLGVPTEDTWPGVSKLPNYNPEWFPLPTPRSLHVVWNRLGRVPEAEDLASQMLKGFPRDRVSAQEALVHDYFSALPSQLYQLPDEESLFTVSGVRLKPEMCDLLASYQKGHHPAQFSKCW
Serine/threonine-protein kinase PRP4 homolog (Homo sapiens), sequence (Q13523 whole entry): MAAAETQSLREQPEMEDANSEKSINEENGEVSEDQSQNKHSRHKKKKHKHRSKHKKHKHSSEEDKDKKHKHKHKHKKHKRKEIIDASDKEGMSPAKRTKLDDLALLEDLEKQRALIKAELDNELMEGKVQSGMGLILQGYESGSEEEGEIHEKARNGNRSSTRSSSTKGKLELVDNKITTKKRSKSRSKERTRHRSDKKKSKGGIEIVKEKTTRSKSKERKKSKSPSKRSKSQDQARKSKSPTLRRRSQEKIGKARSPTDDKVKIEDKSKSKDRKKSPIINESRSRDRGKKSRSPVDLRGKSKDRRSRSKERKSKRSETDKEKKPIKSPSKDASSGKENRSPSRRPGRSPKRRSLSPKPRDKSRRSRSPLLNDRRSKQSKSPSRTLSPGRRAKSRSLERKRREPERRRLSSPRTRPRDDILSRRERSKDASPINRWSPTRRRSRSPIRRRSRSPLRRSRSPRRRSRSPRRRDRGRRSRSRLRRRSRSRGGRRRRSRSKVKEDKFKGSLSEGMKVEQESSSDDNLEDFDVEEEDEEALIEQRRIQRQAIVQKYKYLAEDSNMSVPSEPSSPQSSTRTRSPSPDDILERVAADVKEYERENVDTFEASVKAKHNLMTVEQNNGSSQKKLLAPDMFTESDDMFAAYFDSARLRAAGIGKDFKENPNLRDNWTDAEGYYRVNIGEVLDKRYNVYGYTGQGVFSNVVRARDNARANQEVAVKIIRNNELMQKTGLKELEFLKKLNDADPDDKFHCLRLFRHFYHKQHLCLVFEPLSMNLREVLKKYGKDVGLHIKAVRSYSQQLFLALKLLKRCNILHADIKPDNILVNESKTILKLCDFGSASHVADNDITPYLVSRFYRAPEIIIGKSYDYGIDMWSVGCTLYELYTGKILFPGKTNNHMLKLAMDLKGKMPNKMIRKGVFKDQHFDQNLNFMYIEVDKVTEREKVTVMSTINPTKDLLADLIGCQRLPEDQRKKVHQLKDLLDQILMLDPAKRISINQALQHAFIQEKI
Ribosomal protein S6 kinase alpha-4 (Homo sapiens), sequence (O75676 whole entry, looked up): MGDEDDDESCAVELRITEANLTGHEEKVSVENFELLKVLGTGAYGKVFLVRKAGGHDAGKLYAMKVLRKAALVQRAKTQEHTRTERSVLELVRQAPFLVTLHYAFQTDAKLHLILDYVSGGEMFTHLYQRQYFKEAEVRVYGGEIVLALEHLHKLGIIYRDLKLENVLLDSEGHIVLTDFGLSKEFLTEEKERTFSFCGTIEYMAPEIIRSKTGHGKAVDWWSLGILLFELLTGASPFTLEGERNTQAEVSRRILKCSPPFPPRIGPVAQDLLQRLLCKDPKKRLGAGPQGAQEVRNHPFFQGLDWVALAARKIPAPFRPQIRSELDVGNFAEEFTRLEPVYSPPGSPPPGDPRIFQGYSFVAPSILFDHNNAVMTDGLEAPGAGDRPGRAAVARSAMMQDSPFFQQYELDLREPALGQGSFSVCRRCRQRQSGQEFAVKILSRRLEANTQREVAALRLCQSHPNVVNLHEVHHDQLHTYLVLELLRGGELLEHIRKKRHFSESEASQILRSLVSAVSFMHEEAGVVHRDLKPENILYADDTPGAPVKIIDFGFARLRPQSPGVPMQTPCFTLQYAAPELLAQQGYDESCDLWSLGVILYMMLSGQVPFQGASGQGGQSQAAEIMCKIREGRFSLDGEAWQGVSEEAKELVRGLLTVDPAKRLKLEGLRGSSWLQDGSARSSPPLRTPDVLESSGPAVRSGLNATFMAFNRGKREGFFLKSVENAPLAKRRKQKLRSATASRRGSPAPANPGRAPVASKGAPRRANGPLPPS
Dual specificity protein kinase CLK3, sequence (P49761 whole entry, looked up): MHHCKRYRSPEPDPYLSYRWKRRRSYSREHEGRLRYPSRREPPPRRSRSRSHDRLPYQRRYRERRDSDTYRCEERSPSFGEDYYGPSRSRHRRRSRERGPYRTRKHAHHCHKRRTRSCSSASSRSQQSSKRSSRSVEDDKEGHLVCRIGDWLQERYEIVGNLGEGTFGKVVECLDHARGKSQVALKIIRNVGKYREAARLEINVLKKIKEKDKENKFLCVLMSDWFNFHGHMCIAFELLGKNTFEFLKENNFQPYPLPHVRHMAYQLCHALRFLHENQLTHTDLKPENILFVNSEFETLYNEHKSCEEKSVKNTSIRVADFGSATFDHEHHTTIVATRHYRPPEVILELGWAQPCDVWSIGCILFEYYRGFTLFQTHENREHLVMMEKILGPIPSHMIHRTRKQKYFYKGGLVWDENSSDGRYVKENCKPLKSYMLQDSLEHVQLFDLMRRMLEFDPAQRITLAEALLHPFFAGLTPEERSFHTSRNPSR

COc1cc(N(C)c2ccnc3ccc(C(F)(F)F)cc23)cc(OC)c1OC
% binding [1]: 52%

Nc1cnc(N2CCc3cc(S(=O)(=O)Nc4c(F)cc(Cl)cc4F)cc(N4CCCC4=O)c32)nc1 [TP-020n]
% of control [2]: 96%

Cc1cc([C@@H](C)Nc2ccccc2C(=O)O)c2nc(N3CCOCC3)cc(=O)n2c1 [AZD-6482]
% of control [3]: 100%
% of control [4]: 100%

CC[C@@H]1[C@H](F)C(=O)N[C@@H]1COc1nccc2cc(C(N)=O)c(OC)cc12 [ZIMLOVISERTIB]
% of inhibition [5]: 5.76%

COc1cc(Nc2nc(C)cc(-c3cnn4nc(OC)ccc34)n2)cc(C(F)(F)F)c1
% of control [6]: 100%

COCC(=O)NC/C=C/c1ccc2ncnc(Nc3ccc(Oc4ccc(C)nc4)c(C)c3)c2c1 [CP-724714]
% of control [7]: 86%
